# Tests used:
# [1] = Phase I Part 1: plasma pharmacokinetics after single oral dose; assay type: in vivo, human; conditions: for MRT / AUC0−∞ / Cmax / T1/2: geometric mean
# Protocol: To test dose proportionality, PK parameters were analyzed graphically as AUC/dose and Cmax/dose and via a power model (PK parameter=α*dose^β) approach with log-transformed PK parameters as the dependent variable and log-transformed dose as the independent variable.
# RA and SLE models = conditions: in vivo; cited from earlier work
# [2] = Phase I Part 2 (multiple ascending dose study): safety and tolerability, TEAEs; assay type: in vivo, human
# Protocol: The decision whether to initiate Part 2 of the study, as well as the MAD starting dose, was determined by the SMC based on review of safety data from Part 1, with PK and PD data also used to inform the decision. Dose-limiting criteria and termination/stopping rules were as per Part 1 of the study. […] Ultimately, dose levels of 25, 75, and 200 mg were selected.
# Data were summarized using descriptive statistics.
# B cells = conditions: in vitro and ex vivo; cited from earlier work
# [3] = tested on: BCR- and FcR-mediated signalling; conditions: variety of human cellular assays; cited from earlier work
# [4] = Part 2, 25 mg once daily, 14 days
# [5] = Part 2, 75 mg once daily, 14 days
# [6] = Part 2, 200 mg once daily, 14 days
# [7] = Part 2, pooled active, listed as evobrutinib
compound,measurement,setting,value
"C=CC(=O)N1CCC(CNc2ncnc(N)c2-c2ccc(Oc3ccccc3)cc2)CC1 [Evobrutinib, 1-(4-(((6-amino-5-(4-phenoxyphenyl)pyrimidin-4-yl)amino)methyl)piperidin-1-yl)prop-2-en-1-one]",Time after dosing up to which concentrations above LLOQ were measurable,"[1]; 350 and 500 mg, some (n=3) subjects",up to 48 h
same,Vd/F,"[1]; both sexes, human, plasma, oral, all doses, read-out: Relevant Vz/F",~650 L
same,MRT,"[1]; human, plasma, oral, single dose 25 mg",1.82 h
same,MRT,"[1]; human, plasma, oral, single dose 50 mg",1.82 h
same,MRT,"[1]; human, plasma, oral, single dose 100 mg",1.7 h
same,MRT,"[1]; human, plasma, oral, single dose 200 mg",1.8 h
same,MRT,"[1]; human, plasma, oral, single dose 350 mg",2.26 h
same,MRT,"[1]; human, plasma, oral, single dose 500 mg",2.19 h
same,"PK profile in words (clearance, Vz/f, t1/2)",[1]; humans,"moderate-to-high plasma clearance, medium Vz/f, and short t1/2"
same,Apparent clearance (CL/F),[1]; range across single doses,"2,553-3,995 mL/min"
same,AUC0−∞,[1]; single dose 25 mg,104 ng·h/mL
same,Cmax,[1]; single dose 25 mg,69.9 ng/mL
same,T1/2,[1]; single dose 25 mg,1.80 h
same,AUC0−∞,[1]; single dose 50 mg,326 ng·h/mL
same,Cmax,[1]; single dose 50 mg,234 ng/mL
same,T1/2,[1]; single dose 50 mg,2.06 h
same,AUC0−∞,[1]; single dose 100 mg,434 ng·h/mL
same,Cmax,[1]; single dose 100 mg,309 ng/mL
same,T1/2,[1]; single dose 100 mg,2.56 h
same,AUC0−∞,[1]; single dose 200 mg,856 ng·h/mL
same,Cmax,[1]; single dose 200 mg,555 ng/mL
same,T1/2,[1]; single dose 200 mg,2.09 h
same,AUC0−∞,[1]; single dose 350 mg,"1,910 ng * h/mL"
same,Cmax,[1]; single dose 350 mg,846 ng/mL
same,T1/2,[1]; single dose 350 mg,6.81 h
same,AUC0−∞,[1]; single dose 500 mg,"3,220 ng * h/mL"
same,Cmax,[1]; single dose 500 mg,1510 ng/mL
same,T1/2,[1]; single dose 500 mg,6.63 h
same,Apparent geometric mean terminal half-life (t1/2),[1]; single doses 25-200 mg,1.8 to 2.6 h
same,Apparent geometric mean terminal half-life (t1/2),[1]; single doses 350 and 500 mg,6.6 to 6.8 h
same,Plasma concentration remaining after Cmax,"[1]; within 8 h, dose-independent",less than 1 % of Cmax
same,Relevant t1/2,"[1]; within the first 8 h, all doses",~2 h
same,Activity in RA and SLE models,RA and SLE models,robust activity
same,Relation of gastrointestinal or other TEAEs to dose,[2]; Part 2,No relation to dose was observed
same,Severity of TEAEs and dose-limiting adverse events,[2]; Part 2,mild and no dose-limiting adverse events were reported
same,"Abdominal discomfort, number of TEAEs",[2]; [4],1
same,"Abdominal discomfort, subjects",[2]; [4],1 (11.1) n (%)
same,"Abdominal pain, subjects",[2]; [4],0 (0.0) n (%)
same,"Application site irritation, subjects",[2]; [4],0 (0.0) n (%)
same,"Complex regional pain, number of TEAEs",[2]; [4],1
same,"Complex regional pain, subjects",[2]; [4],1 (11.1) n (%)
same,"Constipation, subjects",[2]; [4],0 (0.0) n (%)
same,"Dry throat, subjects",[2]; [4],0 (0.0) n (%)
same,"Excoriation, number of TEAEs",[2]; [4],1
same,"Excoriation, subjects",[2]; [4],1 (11.1) n (%)
same,"Fatigue, subjects",[2]; [4],0 (0.0) n (%)
same,"Headache, number of TEAEs",[2]; [4],1
same,"Headache, subjects",[2]; [4],1 (11.1) n (%)
same,"Muscle spasms, subjects",[2]; [4],0 (0.0) n (%)
same,"Muscle strain, number of TEAEs",[2]; [4],1
same,"Muscle strain, subjects",[2]; [4],1 (11.1) n (%)
same,"Nausea, subjects",[2]; [4],0 (0.0) n (%)
same,"Overall total TEAEs, subjects",[2]; [4],3 (33.3) n (%)
same,"Overall total, number of TEAEs",[2]; [4],6
same,"Rhinorrhea, number of TEAEs",[2]; [4],1
same,"Rhinorrhea, subjects",[2]; [4],1 (11.1) n (%)
same,"Sneezing, subjects",[2]; [4],0 (0.0) n (%)
same,"Toothache, subjects",[2]; [4],0 (0.0) n (%)
same,"Upper respiratory tract infection, subjects",[2]; [4],0 (0.0) n (%)
same,"Abdominal discomfort, subjects",[2]; [5],0 (0.0) n (%)
same,"Abdominal pain, number of TEAEs",[2]; [5],2
same,"Abdominal pain, subjects",[2]; [5],1 (11.1) n (%)
same,"Application site irritation, number of TEAEs",[2]; [5],1
same,"Application site irritation, subjects",[2]; [5],1 (11.1) n (%)
same,"Complex regional pain, subjects",[2]; [5],0 (0.0) n (%)
same,"Constipation, number of TEAEs",[2]; [5],1
same,"Constipation, subjects",[2]; [5],1 (11.1) n (%)
same,"Dry throat, number of TEAEs",[2]; [5],1
same,"Dry throat, subjects",[2]; [5],1 (11.1) n (%)
same,"Excoriation, subjects",[2]; [5],0 (0.0) n (%)
same,"Fatigue, number of TEAEs",[2]; [5],2
same,"Fatigue, subjects",[2]; [5],2 (22.2) n (%)
same,"Headache, number of TEAEs",[2]; [5],2
same,"Headache, subjects",[2]; [5],2 (22.2) n (%)
same,"Muscle spasms, number of TEAEs",[2]; [5],1
same,"Muscle spasms, subjects",[2]; [5],1 (11.1) n (%)
same,"Muscle strain, subjects",[2]; [5],0 (0.0) n (%)
same,"Nausea, number of TEAEs",[2]; [5],2
same,"Nausea, subjects",[2]; [5],1 (11.1) n (%)
same,"Overall total TEAEs, subjects",[2]; [5],7 (77.8) n (%)
same,"Overall total, number of TEAEs",[2]; [5],14
same,"Rhinorrhea, subjects",[2]; [5],0 (0.0) n (%)
same,"Sneezing, number of TEAEs",[2]; [5],1
same,"Sneezing, subjects",[2]; [5],1 (11.1) n (%)
same,"Toothache, subjects",[2]; [5],0 (0.0) n (%)
same,"Upper respiratory tract infection, number of TEAEs",[2]; [5],1
same,"Upper respiratory tract infection, subjects",[2]; [5],1 (11.1) n (%)
same,"Abdominal discomfort, subjects",[2]; [6],0 (0.0) n (%)
same,"Abdominal pain, subjects",[2]; [6],0 (0.0) n (%)
same,"Application site irritation, number of TEAEs",[2]; [6],1
same,"Application site irritation, subjects",[2]; [6],1 (11.1) n (%)
same,"Complex regional pain, subjects",[2]; [6],0 (0.0) n (%)
same,"Constipation, subjects",[2]; [6],0 (0.0) n (%)
same,"Dry throat, subjects",[2]; [6],0 (0.0) n (%)
same,"Excoriation, subjects",[2]; [6],0 (0.0) n (%)
same,"Fatigue, subjects",[2]; [6],0 (0.0) n (%)
same,"Headache, subjects",[2]; [6],0 (0.0) n (%)
same,"Muscle spasms, subjects",[2]; [6],0 (0.0) n (%)
same,"Muscle strain, subjects",[2]; [6],0 (0.0) n (%)
same,"Nausea, subjects",[2]; [6],0 (0.0) n (%)
same,"Overall total TEAEs, subjects",[2]; [6],3 (33.3) n (%)
same,"Overall total, number of TEAEs",[2]; [6],3
same,"Rhinorrhea, subjects",[2]; [6],0 (0.0) n (%)
same,"Sneezing, subjects",[2]; [6],0 (0.0) n (%)
same,"Toothache, number of TEAEs",[2]; [6],1
same,"Toothache, subjects",[2]; [6],1 (11.1) n (%)
same,"Upper respiratory tract infection, number of TEAEs",[2]; [6],1
same,"Upper respiratory tract infection, subjects",[2]; [6],1 (11.1) n (%)
same,Number of gastrointestinal TEAEs,"[2]; Part 2, all evobrutinib doses",Seven
same,Subjects with fatigue,"[2]; Part 2, all evobrutinib doses",7.4%
same,Subjects with gastrointestinal TEAEs,"[2]; Part 2, all evobrutinib doses",18.5%
same,Subjects with headache,"[2]; Part 2, all evobrutinib doses",11.1%
same,Subjects with skin irritation due to ECG pads,"[2]; Part 2, all evobrutinib doses",7.4%
same,Subjects with upper respiratory tract infection,"[2]; Part 2, all evobrutinib doses",7.4%
same,Subjects with TEAEs,"[2]; Part 2, multiple dosing, all evobrutinib doses",48.1%
same,"Abdominal discomfort, number of TEAEs","[2]; Part 2, pooled active",1
same,"Abdominal discomfort, subjects","[2]; Part 2, pooled active",1 (3.7) n (%)
same,"Abdominal pain, number of TEAEs","[2]; Part 2, pooled active",2
same,"Abdominal pain, subjects","[2]; Part 2, pooled active",1 (3.7) n (%)
same,"Application site irritation, number of TEAEs","[2]; Part 2, pooled active",2
same,"Application site irritation, subjects","[2]; Part 2, pooled active",2 (7.4) n (%)
same,"Complex regional pain, number of TEAEs","[2]; Part 2, pooled active",1
same,"Complex regional pain, subjects","[2]; Part 2, pooled active",1 (3.7) n (%)
same,"Constipation, number of TEAEs","[2]; Part 2, pooled active",1
same,"Constipation, subjects","[2]; Part 2, pooled active",1 (3.7) n (%)
same,"Dry throat, number of TEAEs","[2]; Part 2, pooled active",1
same,"Dry throat, subjects","[2]; Part 2, pooled active",1 (3.7) n (%)
same,"Excoriation, number of TEAEs","[2]; Part 2, pooled active",1
same,"Excoriation, subjects","[2]; Part 2, pooled active",1 (3.7) n (%)
same,"Fatigue, number of TEAEs","[2]; Part 2, pooled active",2
same,"Fatigue, subjects","[2]; Part 2, pooled active",2 (7.4) n (%)
same,"Headache, number of TEAEs","[2]; Part 2, pooled active",3
same,"Headache, subjects","[2]; Part 2, pooled active",3 (11.1) n (%)
same,"Muscle spasms, number of TEAEs","[2]; Part 2, pooled active",1
same,"Muscle spasms, subjects","[2]; Part 2, pooled active",1 (3.7) n (%)
same,"Muscle strain, number of TEAEs","[2]; Part 2, pooled active",1
same,"Muscle strain, subjects","[2]; Part 2, pooled active",1 (3.7) n (%)
same,"Nausea, number of TEAEs","[2]; Part 2, pooled active",2
same,"Nausea, subjects","[2]; Part 2, pooled active",1 (3.7) n (%)
same,"Overall total TEAEs, subjects","[2]; Part 2, pooled active",13 (48.1) n (%)
same,"Overall total, number of TEAEs","[2]; Part 2, pooled active",23
same,"Rhinorrhea, number of TEAEs","[2]; Part 2, pooled active",1
same,"Rhinorrhea, subjects","[2]; Part 2, pooled active",1 (3.7) n (%)
same,"Sneezing, number of TEAEs","[2]; Part 2, pooled active",1
same,"Sneezing, subjects","[2]; Part 2, pooled active",1 (3.7) n (%)
same,"Toothache, number of TEAEs","[2]; Part 2, pooled active",1
same,"Toothache, subjects","[2]; Part 2, pooled active",1 (3.7) n (%)
same,"Upper respiratory tract infection, number of TEAEs","[2]; Part 2, pooled active",2
same,"Upper respiratory tract infection, subjects","[2]; Part 2, pooled active",2 (7.4) n (%)
same,"Application site irritation, number of TEAEs",[2]; [7],two
same,"Fatigue, number of TEAEs",[2]; [7],two
same,"Headache, number of TEAEs",[2]; [7],three
same,"Upper respiratory tract infection, number of TEAEs",[2]; [7],two
same,B-cell activation and maturation,B cells,inhibits B-cell activation and maturation from naïve to antigen-activated B cells
same,BCR- and FcR-mediated signalling,[3],potently inhibit

# — US12251382B2, “Substituted amino-pyrimidine compound for use in a method for treatment and prevention of multiple sclerosis” (Merck Patent GmbH, priority 2018, dated 2025)
